Results from US4698352A, “4-oxo-1,4-dihydronicotinic acid derivatives, salts thereof, and antibacterial agents containing the same” (Toyama Chemical Co., Ltd., priority 1982, dated 1987).
Values after ≈ are worked out from the molar mass of the structure shown. Like-named read-outs stand apart in the source and are kept apart here.

Legend:
Test in all cases: Antibacterial activity (MIC), agar dilution
Format in all cases: cell-based
E. coli TK-3* = conditions: Escherichia coli, 20 h
From the text: (§1) The amount of bacteria inoculated was 10^4 cells per plate (10^6 cells per ml).
(§2) * Penicillinase-producing bacteria

Ps. aeruginosa GN3379* = conditions: Pseudomonas aeruginosa, Ps. aeruginosa GN3379, penicillinase-producing, 10^6 cells per ml
From the text: as §1, §2

Kl. pneumoniae Y-4* = conditions: Klebsiella pneumoniae, 20 h, Kl. pneumoniae Y-4, penicillinase-producing; 10^6 cells per ml; read-out: MIC
From the text: as §1, §2

St. aureus F-137* = conditions: Staphylococcus aureus, 20 h
From the text: as §1, §2

Pro. morganii T-216 = conditions: Morganella morganii, 37° C.
From the text: as §1

E. coli NIHJ JC-2 = conditions: Escherichia coli, NIHJJC2, 20 h
From the text: as §1

Ps. aeruginosa S-68 = conditions: Pseudomonas aeruginosa
From the text: as §1

Kl. pneumoniae Y-41 = conditions: Klebsiella pneumoniae, Y41, 10^6 cells per ml, 37° C., 20 hours, read-out: MIC
From the text: as §1

E. coli TK-111 = conditions: Escherichia coli, TK111, 20 h, E. coli TK-111; 10^6 cells per ml; 37° C., 20 hours; read-out: MIC
From the text: as §1

Aci. antitratus A-6 = conditions: 20 h, Aci. antitratus A-6; 10^6 cells per ml; 37° C., 20 hours; read-out: MIC
From the text: as §1

Pro. vulgaris GN3027 = conditions: Proteus vulgaris, GN3027, 20 h, Pro. vulgaris GN3027; 10^6 cells per ml; 37° C., 20 hours; read-out: MIC
From the text: as §1

Ps. aeruginosa IFO3445 = conditions: Pseudomonas aeruginosa; Ps. aeruginosa IFO3445; 10^6 cells per ml; 37° C., 20 hours; read-out: MIC
From the text: as §1

St. aureus FDA209P = conditions: Staphylococcus aureus, FDA209P, 20 h
From the text: as §1

Pro. mirabilis T-111 = conditions: Proteus mirabilis, 37° C.
From the text: as §1

Ent. cloacae IID977 = conditions: Enterobacter cloacae, IID977, 20 h
From the text: as §1

Kl. pneumoniae Y-50 = conditions: Klebsiella pneumoniae, Y50, 20 h, 10^6 cells per ml, 37° C., read-out: MIC
From the text: as §1

E. coli GN5482** = conditions: Escherichia coli, 20 h; E. coli GN5482, cephalospolinase-producing; 10^6 cells per ml; read-out: MIC
From the text: as §1
(§3) ** Cephalospolinase-producing bacteria

Ps. aeruginosa GN918** = conditions: Pseudomonas aeruginosa, Ps. aeruginosa GN918, cephalospolinase-producing, 10^6 cells per ml
From the text: as §1, §3

Pro. vulgaris GN76** = conditions: Proteus vulgaris
From the text: as §1, §3

[1] = E. coli TK-3, penicillinase-producing, 10^6 cells per ml, read-out: MIC
[2] = St. aureus F-137, penicillinase-producing, 10^6 cells per ml, read-out: MIC
[3] = T216, 10^6 cells per ml, 20 hours, read-out: MIC
[4] = E. coli NIHJ JC-2, 10^6 cells per ml, 37° C., 20 hours, read-out: MIC
[5] = St. aureus FDA209P, 10^6 cells per ml, 37° C., 20 hours, read-out: MIC
[6] = Ent. cloacae IID977, 10^6 cells per ml, 37° C., 20 hours, read-out: MIC
[7] = S68, Ps. aeruginosa S-68, 10^6 cells per ml, 37° C., 20 hours, read-out: MIC
[8] = 20 h, Pro. vulgaris GN76, cephalospolinase-producing, 10^6 cells per ml, read-out: MIC
[9] = T111, 10^6 cells per ml, 20 hours, read-out: MIC

Compound | MIC (E. coli TK-3*; [1]) | MIC (Kl. pneumoniae Y-4*) | MIC (St. aureus F-137*; [2]) | MIC (Pro. morganii T-216; [3]) | MIC (E. coli NIHJ JC-2; [4]) | MIC (Kl. pneumoniae Y-41) | MIC (E. coli TK-111) | MIC (Aci. antitratus A-6) | MIC (Pro. vulgaris GN3027) | MIC (Ps. aeruginosa IFO3445) | MIC (St. aureus FDA209P; [5]) | MIC (Pro. mirabilis T-111; T111, 20 h, 10^6 cells per ml) | MIC (Kl. pneumoniae Y-50) | MIC (E. coli GN5482**) | MIC (Pro. vulgaris GN76**; GN76, 20 h) | MIC (Ps. aeruginosa GN3379*; 20 h, read-out: MIC) | MIC (St. aureus F-137*) | MIC (Ps. aeruginosa S-68; [7]) | MIC (Ent. cloacae IID977) | MIC (Ps. aeruginosa GN918**; 20 h, read-out: MIC) | further results
CN(C)c1ccc(-c2cc(=O)c(C(=O)O)cn2-c2ccc(F)cc2)cc1 | 3.13 µg/mL (≈ 8.88 µM) | 12.5 µg/mL (≈ 35.5 µM) | 0.78 µg/mL (≈ 2.21 µM) | 3.13 µg/mL (≈ 8.88 µM) | 0.78 µg/mL (≈ 2.21 µM) | 6.25 µg/mL (≈ 17.7 µM) | 0.39 µg/mL (≈ 1.11 µM) | 0.39 µg/mL (≈ 1.11 µM) | 0.39 µg/mL (≈ 1.11 µM) | 25 µg/mL (≈ 70.9 µM) | 0.78 µg/mL (≈ 2.21 µM) | 6.25 µg/mL (≈ 17.7 µM) | 1.56 µg/mL (≈ 4.43 µM) | 0.2 µg/mL (≈ 0.568 µM) | 1.56 µg/mL (≈ 4.43 µM) |  |  |  |  |  | MIC (Ps. aeruginosa GN3379*; GN3379, 20 h): 12.5 µg/mL (≈ 35.5 µM); MIC (Ps. aeruginosa S-68; S68, 20 h): 12.5 µg/mL (≈ 35.5 µM); MIC (Ent. cloacae IID977; [6]): 3.13 µg/mL (≈ 8.88 µM); MIC (Ps. aeruginosa GN918**; GN918, 20 h): 12.5 µg/mL (≈ 35.5 µM)
Cc1ccc(-c2cc(=O)c(C(=O)O)cn2-c2ccc(F)cc2)s1 |  | 12.5 µg/mL (≈ 38 µM) |  |  | 1.56 µg/mL (≈ 4.74 µM) | 6.25 µg/mL (≈ 19 µM) | 0.78 µg/mL (≈ 2.37 µM) | 1.56 µg/mL (≈ 4.74 µM) | 0.2 µg/mL (≈ 0.607 µM) | 50 µg/mL (≈ 152 µM) |  | 6.25 µg/mL (≈ 19 µM) | 3.13 µg/mL (≈ 9.5 µM) | 0.2 µg/mL (≈ 0.607 µM) |  | 25 µg/mL (≈ 75.9 µM) | 3.13 µg/mL (≈ 9.5 µM) | 25 µg/mL (≈ 75.9 µM) | 3.13 µg/mL (≈ 9.5 µM) | 50 µg/mL (≈ 152 µM) | MIC (E. coli TK-3*): 3.13 µg/mL (≈ 9.5 µM); MIC (Pro. morganii T-216; T216, 20 h, 10^6 cells per ml): 3.13 µg/mL (≈ 9.5 µM); MIC (St. aureus FDA209P): 3.13 µg/mL (≈ 9.5 µM); MIC (Pro. vulgaris GN76**; [8]): 1.56 µg/mL (≈ 4.74 µM)
O=C(O)c1cn(-c2ccc(F)cc2)c(-c2ccc(Br)s2)cc1=O | 6.25 µg/mL (≈ 15.9 µM) | 25 µg/mL (≈ 63.4 µM) |  | 6.25 µg/mL (≈ 15.9 µM) |  | 12.5 µg/mL (≈ 31.7 µM) | 1.56 µg/mL (≈ 3.96 µM) | 1.56 µg/mL (≈ 3.96 µM) | 0.39 µg/mL (≈ 0.989 µM) | 50 µg/mL (≈ 127 µM) | 1.56 µg/mL (≈ 3.96 µM) | 12.5 µg/mL (≈ 31.7 µM) | 3.13 µg/mL (≈ 7.94 µM) | 0.39 µg/mL (≈ 0.989 µM) | 3.13 µg/mL (≈ 7.94 µM) | 25 µg/mL (≈ 63.4 µM) | 3.13 µg/mL (≈ 7.94 µM) | 25 µg/mL (≈ 63.4 µM) | 12.5 µg/mL (≈ 31.7 µM) | 100 µg/mL (≈ 254 µM) | MIC (E. coli NIHJ JC-2): 3.13 µg/mL (≈ 7.94 µM)
CN(C)c1ccc(-c2cc(=O)c(C(=O)O)cn2-c2ccccc2F)cc1 |  | 25 µg/mL (≈ 70.9 µM) | 1.56 µg/mL (≈ 4.43 µM) |  | 1.56 µg/mL (≈ 4.43 µM) | 6.25 µg/mL (≈ 17.7 µM) | 0.78 µg/mL (≈ 2.21 µM) | 1.56 µg/mL (≈ 4.43 µM) | 0.78 µg/mL (≈ 2.21 µM) | > 100 µg/mL | 1.56 µg/mL (≈ 4.43 µM) |  | 3.13 µg/mL (≈ 8.88 µM) | 0.39 µg/mL (≈ 1.11 µM) | 3.13 µg/mL (≈ 8.88 µM) | > 100 µg/mL |  | 25 µg/mL (≈ 70.9 µM) | 6.25 µg/mL (≈ 17.7 µM) | > 100 µg/mL | MIC (E. coli TK-3*): 3.13 µg/mL (≈ 8.88 µM); MIC (Pro. morganii T-216; T216, 20 h, 10^6 cells per ml): 6.25 µg/mL (≈ 17.7 µM); MIC (Pro. mirabilis T-111; [9]): 25 µg/mL (≈ 70.9 µM)
O=C(O)c1cn(-c2ccc(F)cc2)c(-c2ccc(Cl)s2)cc1=O | 6.25 µg/mL (≈ 17.9 µM) | 25 µg/mL (≈ 71.5 µM) |  | 6.25 µg/mL (≈ 17.9 µM) |  | 12.5 µg/mL (≈ 35.7 µM) | 1.56 µg/mL (≈ 4.46 µM) | 1.56 µg/mL (≈ 4.46 µM) | 0.39 µg/mL (≈ 1.12 µM) | 50 µg/mL (≈ 143 µM) |  | 12.5 µg/mL (≈ 35.7 µM) | 3.13 µg/mL (≈ 8.95 µM) | 0.39 µg/mL (≈ 1.12 µM) | 3.13 µg/mL (≈ 8.95 µM) | 25 µg/mL (≈ 71.5 µM) | 3.13 µg/mL (≈ 8.95 µM) | 25 µg/mL (≈ 71.5 µM) | 12.5 µg/mL (≈ 35.7 µM) | 100 µg/mL (≈ 286 µM) | MIC (E. coli NIHJ JC-2): 3.13 µg/mL (≈ 8.95 µM); MIC (St. aureus FDA209P): 3.13 µg/mL (≈ 8.95 µM)
COc1ccc(-c2cc(=O)c(C(=O)O)cn2-c2ccc(F)cc2)cc1 |  | 12.5 µg/mL (≈ 36.8 µM) |  | 6.25 µg/mL (≈ 18.4 µM) | 1.56 µg/mL (≈ 4.6 µM) | 12.5 µg/mL (≈ 36.8 µM) | 0.78 µg/mL (≈ 2.3 µM) | 1.56 µg/mL (≈ 4.6 µM) | 0.39 µg/mL (≈ 1.15 µM) | 25 µg/mL (≈ 73.7 µM) |  | 12.5 µg/mL (≈ 36.8 µM) | 3.13 µg/mL (≈ 9.22 µM) | 0.2 µg/mL (≈ 0.589 µM) | 3.13 µg/mL (≈ 9.22 µM) | 25 µg/mL (≈ 73.7 µM) | 3.13 µg/mL (≈ 9.22 µM) | 25 µg/mL (≈ 73.7 µM) |  | 50 µg/mL (≈ 147 µM) | MIC (E. coli TK-3*): 3.13 µg/mL (≈ 9.22 µM); MIC (St. aureus FDA209P): 3.13 µg/mL (≈ 9.22 µM); MIC (Ent. cloacae IID977; [6]): 6.25 µg/mL (≈ 18.4 µM)
CNc1ccc(-c2cc(=O)c(C(=O)O)cn2-c2ccc(F)cc2)cc1C | 3.13 µg/mL (≈ 8.88 µM) | 12.5 µg/mL (≈ 35.5 µM) | 0.78 µg/mL (≈ 2.21 µM) |  |  | 6.25 µg/mL (≈ 17.7 µM) | 0.39 µg/mL (≈ 1.11 µM) | 0.78 µg/mL (≈ 2.21 µM) | 0.78 µg/mL (≈ 2.21 µM) | 50 µg/mL (≈ 142 µM) |  | 12.5 µg/mL (≈ 35.5 µM) | 1.56 µg/mL (≈ 4.43 µM) | 0.2 µg/mL (≈ 0.568 µM) |  | 25 µg/mL (≈ 70.9 µM) |  |  | 6.25 µg/mL (≈ 17.7 µM) | 50 µg/mL (≈ 142 µM) | MIC (Pro. morganii T-216; T216, 20 h, 10^6 cells per ml): 6.25 µg/mL (≈ 17.7 µM); MIC (E. coli NIHJ JC-2): 1.56 µg/mL (≈ 4.43 µM); MIC (Ps. aeruginosa S-68; S68, 20 h): 12.5 µg/mL (≈ 35.5 µM); MIC (St. aureus FDA209P): 1.56 µg/mL (≈ 4.43 µM); MIC (Pro. vulgaris GN76**; [8]): 3.13 µg/mL (≈ 8.88 µM)
CN(C)c1ccc(-c2cc(=O)c(C(=O)O)cn2-c2ccc(F)cc2F)cc1 | 3.13 µg/mL (≈ 8.45 µM) | 6.25 µg/mL (≈ 16.9 µM) | 0.1 µg/mL (≈ 0.27 µM) | 3.13 µg/mL (≈ 8.45 µM) | 0.78 µg/mL (≈ 2.11 µM) | 6.25 µg/mL (≈ 16.9 µM) | 0.2 µg/mL (≈ 0.54 µM) | 0.39 µg/mL (≈ 1.05 µM) | 0.2 µg/mL (≈ 0.54 µM) | 12.5 µg/mL (≈ 33.8 µM) | 0.2 µg/mL (≈ 0.54 µM) |  | 0.78 µg/mL (≈ 2.11 µM) | 0.1 µg/mL (≈ 0.27 µM) |  | 25 µg/mL (≈ 67.5 µM) |  | 12.5 µg/mL (≈ 33.8 µM) |  | 12.5 µg/mL (≈ 33.8 µM) | MIC (Pro. mirabilis T-111; [9]): 3.13 µg/mL (≈ 8.45 µM); MIC (Ent. cloacae IID977; [6]): 3.13 µg/mL (≈ 8.45 µM); MIC (Pro. vulgaris GN76**; [8]): 0.78 µg/mL (≈ 2.11 µM)
